Laboratory results taken from the SangsterLogP compilation.

| SMILES | logP |
| --- | --- |
| N=c1nc(N)c(N2CCCC2)cn1O | 0.84 |
| CCN(CC)c1cc(N)[n+]([O-])c(N)n1 | 1.16 |
| C=CCN(CC=C)c1cc(N)[n+]([O-])c(N)n1 | 1.6 |
| CCNc1cc(N)[n+]([O-])c(N)n1 | -0.04 |
| Nc1cc(N2CCOCC2)nc(N)[n+]1[O-] | 0.36 |
| CCCCN(CCCC)c1cc(N)[n+]([O-])c(N)n1 | 3.19 |
| Nc1cc(N(C2CCCCC2)C2CCCCC2)nc(N)[n+]1[O-] | 3.89 |
| CCCN(CCC)c1cc(N)[n+]([O-])c(N)n1 | 2.16 |
| CN(C)c1cc(N)[n+]([O-])c(N)n1 | 0.16 |
| Nc1cc(NC2CCCCC2)nc(N)[n+]1[O-] | 1.62 |
| CNc1cc(N)[n+]([O-])c(N)n1 | -0.49 |
| CCCCCCCCCCNc1cc(N)[n+]([O-])c(N)n1 | 4.08 |
| CCCCNc1cc(N)[n+]([O-])c(N)n1 | 1.02 |
